For test [1], the target named is D(2) dopamine receptor (Mus musculus) (UniProt P61168). The note with it: Striatum; Membrane.
Description: Compound was evaluated for its ability to inhibit the potassium -induced release of [3H]- acetylcholine release in mouse striatal membranes by stimulating Dopamine receptor D2
Test [2] shares this target. As to the kind of experiment: Compound was evaluated for its ability to inhibit the potassium -induced release of [3H]- acetylcholine release in mouse striatal […] by stimulating dopamine receptor D2. The note with it: Striatum.
Test [3] has the same target. As to the kind of experiment: Compound was evaluated for its ability to inhibit the potassium -induced release of [3H]- acetylcholine release in mouse striatal […] by stimulating D2 receptor. The note with it: Striatum.
Test [4] has the same target. In words: The dissociation constant for the inhibition of agonist effect on the K+ evoked release of [3H]- acetylcholine in mouse striatal […]; NS means No statistically significant antagonism observed in […]. Type of test: functional.

Active and inactive are the calls of the source. The rule behind the calls is not given here.

Chain of D(2) dopamine receptor (Mus musculus) (P61168 whole entry): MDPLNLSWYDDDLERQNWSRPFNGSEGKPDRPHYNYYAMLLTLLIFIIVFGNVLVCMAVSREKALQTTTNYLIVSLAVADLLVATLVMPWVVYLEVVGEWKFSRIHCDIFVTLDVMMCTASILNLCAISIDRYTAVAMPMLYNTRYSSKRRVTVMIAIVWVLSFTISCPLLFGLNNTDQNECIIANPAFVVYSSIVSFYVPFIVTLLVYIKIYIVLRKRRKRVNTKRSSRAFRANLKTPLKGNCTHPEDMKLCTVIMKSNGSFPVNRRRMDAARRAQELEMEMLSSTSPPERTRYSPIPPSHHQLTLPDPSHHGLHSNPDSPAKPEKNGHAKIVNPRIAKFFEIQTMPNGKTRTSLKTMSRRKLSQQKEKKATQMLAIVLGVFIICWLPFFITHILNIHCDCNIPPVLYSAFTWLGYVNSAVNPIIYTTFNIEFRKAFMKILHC

Compound `CCN1CCCC1CNC(=O)c1cc(S(N)(=O)=O)ccc1OC` (stereo unspecified) yielded an ED50 in test [1] of 0.0759 µM.
`CC[N+]1(C)CCCC1CNC(=O)c1cc(S(N)(=O)=O)ccc1OC` (stereo unspecified): the ED50 in test [2] was 0.0251 µM.
In test [3], `CC[S+]1CCCC1CNC(=O)c1cc(S(N)(=O)=O)ccc1OC` (stereo unspecified) displayed an ED50 of 0.0384 µM.
`COc1ccc(S(N)(=O)=O)cc1C(=O)NCC1CCCS1` (stereo unspecified) had an ED50 in test [2] of 0.0481 µM. In test [4], the Kb result is “inactive”.
In test [2], `CC[N+]1(CC)CCCC1CNC(=O)c1cc(S(N)(=O)=O)ccc1OC` (stereo unspecified) returned an ED50 of 0.0263 µM.

The record behind these values is ChEMBL document CHEMBL1124686.
